# From the Deep4Chem optical property database
# Assay: solvent given as SMILES
compound,measurement,setting,value
O=S1(=O)C(c2cccs2)=C(c2cccs2)c2ccccc21,absorption maximum,in C1CCOC1,372 nm
COc1ccc(/C=C/C2=CC(/C=C/c3ccc(OC)cc3)=[O+][B-](OC(C)=O)(OC(C)=O)O2)cc1,absorption maximum,in C1CCOC1,456 nm
same,absorption maximum,in CC#N,462 nm
same,absorption maximum,in CC(C)=O,458 nm
same,absorption maximum,in CS(C)=O,468 nm
same,absorption maximum,in Cc1ccccc1,456 nm
same,absorption maximum,in ClC(Cl)Cl,464 nm
same,absorption maximum,in ClCCl,464 nm
c1cc2ccc3ccc4cc3c2cc1CCCCCCc1ccc2ccc3ccc-4cc3c2c1,absorption maximum,in Cc1ccccc1,336 nm
CCN(CC)c1ccc2cc(-c3nc4cc(C(=O)Nc5ccc(C)cc5[N+](=O)[O-])ccc4o3)c(=O)oc2c1,absorption maximum,in ClCCl,445 nm
Cc1cc(C)c(B(c2cc(-c3ccc(N(C)C)cc3)sc2-c2sc(-c3ccc(N(C)C)cc3)cc2P(=O)(c2ccccc2)c2ccccc2)c2c(C)cc(C)cc2C)c(C)c1,absorption maximum,in CO,435 nm
O=[N+]([O-])c1ccc(C#Cc2ccc3ccc(C#Cc4ccc([N+](=O)[O-])cc4)cc3c2)cc1,absorption maximum,in ClCCl,347 nm
COc1ccc2ccc3oc(=O)c(-c4ccccc4)nc3c2c1,absorption maximum,in c1ccccc1,404 nm
c1ccc(COc2cc(C[n+]3ccc(-c4cc[n+](Cc5cc(OCc6ccccc6)cc(OCc6ccccc6)c5)cc4)cc3)cc(OCc3ccccc3)c2)cc1,absorption maximum,in CC#N,261 nm
COc1ccc(-c2c3ccc([nH]3)c3nc(c(-c4ccc([N+](=O)[O-])cc4)c4ccc([nH]4)c4ccc([nH]4)c(-c4ccc(OC)cc4)c4ccc2o4)C=C3)cc1,absorption maximum,in C1CCOC1,446 nm
same,absorption maximum,in Cc1ccccc1,448 nm
same,absorption maximum,in c1ccccc1,448 nm
c1ccc(-c2nc(-c3ccccc3)nc(-c3ccc(-n4c5ccccc5c5cc(-c6ccc7oc8ccccc8c7c6)ccc54)cc3)n2)cc1,absorption maximum,in Cc1ccccc1,370 nm
CN1C(=CC2=C([O-])C(=CC3=[N+](C)c4ccccc4C3(C)C)C2=C2C(=O)NC(=O)NC2=O)C(C)(C)c2ccccc21,absorption maximum,in ClC(Cl)Cl,644 nm
c1ccc(-c2ccc(-c3nc(-c4ccccc4)c(N(c4ccccc4)c4ccccc4)[se]3)cc2)cc1,absorption maximum,in ClC(Cl)Cl,394 nm
COCCOCCOCCOCC(COCCOCCOCCOC)Oc1cc(/C=C/c2ccc(/C=C(\C#N)c3ccncc3)cc2)c(OC(COCCOCCOCCOC)COCCOCCOCCOC)cc1/C=C/c1ccc(/C=C(\C#N)c2ccncc2)cc1,absorption maximum,in ClCCl,445 nm
COc1ccc(/C=C/C2=[O+][B-](F)(F)OC(/C=C/c3ccc(OC)cc3)=C2c2ccccc2)cc1,absorption maximum,in CC#N,500 nm
same,absorption maximum,in CC(C)=O,500 nm
same,absorption maximum,in CCOC(C)=O,496 nm
same,absorption maximum,in CCOCC,491 nm
same,absorption maximum,in ClC(Cl)(Cl)Cl,493 nm
same,absorption maximum,in ClCCl,505 nm
CC1(C)C(/C=C/C=C/C=C/C=C2/N(c3ccc(S(=O)(=O)[O-])cc3)c3ccc(S(=O)(=O)[O-])cc3C2(C)C)=[N+](c2ccc(S(=O)(=O)[O-])cc2)c2ccc(S(=O)(=O)[O-])cc21,absorption maximum,in CO,759 nm
same,absorption maximum,in O,754 nm
COc1ccccc1-c1c2ccc(=[N+]3CCCCC3)cc-2oc2cc(N3CCCCC3)ccc12,absorption maximum,in CCO,564 nm
same,absorption maximum,in ClCCl,566 nm
Cc1ccc(-c2ccc(/C=C/c3ccccc3)cn2)nc1,absorption maximum,in CC#N,335 nm
O=C(O)c1ccc(-c2ccc(-c3nc(-c4ccccc4)c4ccccn34)cc2)s1,absorption maximum,in CC#N,362 nm
C(=C\c1cnccn1)/c1ccc(N(c2ccccc2)c2ccc(/C=C/c3cnccn3)cc2)cc1,absorption maximum,in ClCCl,420 nm
CCc1cc(CC)cc(-n2c3ccccc3c3cc4c(cc32)c2ccccc2n4-c2cc(CC)cc(CC)c2)c1,absorption maximum,in ClC(Cl)Cl,410 nm
O=C1c2ccccc2-c2c(-c3cccc(Cl)c3O)[nH]c(=O)n21,absorption maximum,in CC#N,388 nm
same,absorption maximum,in CO,393 nm
same,absorption maximum,in ClCCl,391 nm
CCc1ccc(-n2c3ccccc3c3cc4c(cc32)c2ccccc2n4-c2ccc(CC)s2)s1,absorption maximum,in ClC(Cl)Cl,398 nm
FC(F)(F)c1ccc(-c2nc(-c3ccc(C(F)(F)F)cc3)n3ccccc23)cc1,absorption maximum,in ClC(Cl)Cl,325 nm
c1ccc(N(c2ccccc2)c2ccc(-n3ccc4cc(-c5ccc(C6(c7ccccc7)c7ccccc7-c7ccccc76)cc5)ccc43)cc2)cc1,absorption maximum,in ClCCl,308 nm
Cc1ccc(C2=C(/C=C/C(=O)OC3CC[C@@]4(C)C(=CC[C@H]5[C@@H]6CC[C@H]([C@H](C)CCCC(C)C)[C@@]6(C)CC[C@@H]54)C3)C(c3ccc(C)cc3)=[N+]3C2=Nc2c(-c4ccc(C)cc4)c(Br)c(-c4ccc(C)cc4)n2[B-]3(F)F)cc1 (stereo not given in full),absorption maximum,in ClC(Cl)Cl,662 nm
Cc1ccc(-c2c3ccc([nH]3)c3nc(c(-c4ccc(C#N)cc4)c4ccc([nH]4)c4ccc([nH]4)c(-c4ccc(C)cc4)c4ccc2o4)C=C3)cc1,absorption maximum,in C1CCOC1,451 nm
same,absorption maximum,in Cc1ccccc1,452 nm
same,absorption maximum,in c1ccccc1,452 nm
O=S(=O)(c1ccc(N(c2ccccc2)c2ccccc2)cc1)c1ccc(S(=O)(=O)c2ccc(N(c3ccccc3)c3ccccc3)cc2)cc1,absorption maximum,in Cc1ccccc1,354 nm
Cc1cc(C)c(C2=C3C=C(/C=C/C(=O)OCc4ccccc4)C=[N+]3[B-](F)(F)n3cccc32)c(C)c1,absorption maximum,in ClCCl,537 nm
CCn1c2ccccc2c2ccc(C#N)cc21,absorption maximum,in C1CCCCC1,366 nm
COc1ccc(C2=Cc3ccccc3[Si]2(c2ccccc2)c2ccccc2)cc1,absorption maximum,in ClCCl,350 nm
Oc1ccc(/N=C/c2ccccc2Oc2ccccc2)cc1,absorption maximum,in C1CCCCC1,348 nm
same,absorption maximum,in C1COCCO1,341 nm
same,absorption maximum,in CC#N,350 nm
same,absorption maximum,in CC(C)=O,342 nm
same,absorption maximum,in CC(C)CO,344 nm
same,absorption maximum,in CC(C)O,344 nm
same,absorption maximum,in CCCCC,341 nm
same,absorption maximum,in CCCCCC,346 nm
same,absorption maximum,in CCCCO,346 nm
same,absorption maximum,in CCCCOC(C)=O,346 nm
same,absorption maximum,in CCCO,345 nm
same,absorption maximum,in CCOC(C)=O,340 nm
same,absorption maximum,in CCOCC,345 nm
same,absorption maximum,in CN(C)C=O,345 nm
same,absorption maximum,in CO,342 nm
same,absorption maximum,in CS(C)=O,348 nm
same,absorption maximum,in Cc1ccccc1,342 nm
same,absorption maximum,in Cc1ccccc1C,382 nm
same,absorption maximum,in ClC(Cl)Cl,343 nm
same,absorption maximum,in N#Cc1ccccc1,341 nm
same,absorption maximum,in c1ccccc1,345 nm
O=C(c1ccc2c3c(cccc13)-c1cccc3c1C2CC=C3)c1c(Cc2ccccc2)c2ccc3cccc4c5cccc6ccc1c(c65)c2c34 (stereo not given),absorption maximum,in ClCCl,467 nm
COc1nc(Nc2ccc3c4cccc5cccc(c6cccc2c63)c54)nc(OC)n1,absorption maximum,in C1COCCO1,443 nm
same,absorption maximum,in CC#N,444 nm
same,absorption maximum,in CCCCOCCCC,442 nm
same,absorption maximum,in CCOC(C)=O,441 nm
CCCCCCOc1cc(C=C(C#N)C#N)c(OCCCCCC)cc1C=C(C#N)C#N,absorption maximum,in ClCCl,477 nm
c1cc2ccc1-c1ccc(cc1)-c1ccc(s1)-c1ccc(cc1)-c1ccc(cc1)-c1ccc(s1)-c1ccc(cc1)-c1ccc(cc1)-c1ccc(s1)-c1ccc(cc1)-c1ccc(cc1)-c1ccc-2s1,absorption maximum,in C1CCOC1,354 nm
O=C1OC(c2ccccc2)=N/C1=C\c1ccccc1,absorption maximum,in C1COCCO1,363 nm
COc1ccc(C2=C(c3ccc(OC)cc3)C(C)(C)c3c2ccc2ccccc32)cc1,absorption maximum,in C1CCCCC1,336 nm
Cn1nc(-c2ccccc2)cc1-c1ccccc1,absorption maximum,in ClCCl,254 nm
CCCCCOc1cc2oc(=O)c3c4ccc(C#N)cc4c4ccc5cccc6c(c1)c2c3c4c56,absorption maximum,in C1CCOC1,426 nm
c1ccc(-c2c3c(c(-c4ccccc4)c4c2-c2ccccc2C4)-c2ccccc2C3)cc1,absorption maximum,in C1CCCCC1,329 nm
Cc1ccc(-c2cc(-c3ccccc3Cl)c3c(N)nc(N4CCCC4)c(C#N)c3n2)cc1,absorption maximum,in CC#N,414 nm
same,absorption maximum,in CC(C)=O,422 nm
same,absorption maximum,in CC(C)O,414 nm
same,absorption maximum,in CO,416 nm
same,absorption maximum,in ClC(Cl)Cl,418 nm
same,absorption maximum,in ClCCl,422 nm
same,absorption maximum,in c1ccccc1,426 nm
COC(=O)c1cccc2c1C#Cc1c(NC(C)=O)cccc1OCCCO2,absorption maximum,in CC#N,335 nm
same,absorption maximum,in ClCCl,341 nm
CCN(CC)c1ccc(/C=N/c2ccccc2/N=C/c2ccc(N(CC)CC)cc2O)c(O)c1,absorption maximum,in CC#N,442 nm
same,absorption maximum,in CN(C)C=O,490 nm
same,absorption maximum,in ClCCl,442 nm
c1ccc(-c2nc3nc4ccccc4nc3n2-c2ccccc2)cc1,absorption maximum,in CC#N,348 nm
O=C(c1ccc2c3c(cccc13)-c1cccc3c1C2CC=C3)c1c(CCc2ccccc2)c2ccc3cccc4c5cccc6ccc1c(c65)c2c34 (stereo not given),absorption maximum,in ClCCl,470 nm
COc1ccc(-c2cc3c(s2)c(C(C)=O)cc(=O)n3Cc2ccccc2)cc1,absorption maximum,in CC#N,420 nm
same,absorption maximum,in ClCCl,426 nm
CC(C)(C)c1ccc2c(c1)c1cc(C(C)(C)C)ccc1n2-c1ccc(S(=O)(=O)c2ccc(S(=O)(=O)c3ccc(-n4c5ccc(C(C)(C)C)cc5c5cc(C(C)(C)C)ccc54)cc3)cc2)cc1,absorption maximum,in Cc1ccccc1,363 nm
COc1ccc(-n2nc(C#N)c(NC3CCCCC3)n2)cc1,absorption maximum,in CC#N,330 nm
same,absorption maximum,in CCCCCC,325 nm
same,absorption maximum,in CCO,333 nm
same,absorption maximum,in CN(C)C=O,336 nm
same,absorption maximum,in ClC(Cl)Cl,330 nm
CCC1=C(C)C2=Cc3c(I)c(I)cn3[B-](F)(F)[N+]2=C1C,absorption maximum,in C1CCCCC1,527.5 nm
same,absorption maximum,in CC(C)=O,509 nm
same,absorption maximum,in CCO,517.5 nm
same,absorption maximum,in CCOC(C)=O,515 nm
same,absorption maximum,in CO,513 nm
same,absorption maximum,in OCC(F)(F)F,501 nm
CC(=O)Nc1ccc(C2=N/C(=C\c3ccc(C#N)cc3)C(=O)O2)cc1,absorption maximum,in C1COCCO1,389 nm
CCOC(=O)/N=c1/oc2c(OC)cccc2cc1C#N,absorption maximum,in ClCCl,374 nm
CCCCCCN(CCCCCC)c1ccc(C#Cc2ccc(-c3ccc(C#Cc4ccc(N(CCCCCC)CCCCCC)cc4)cc3)cc2)cc1,absorption maximum,in Cc1ccccc1,374 nm
C#CCOc1ccc(C2=[N+]3C(=Nc4c(-c5ccccc5)cc(-c5ccc(O)cc5)n4[B-]3(F)F)C(c3ccccc3)=C2)cc1,absorption maximum,in CO,688 nm
same,absorption maximum,in Cc1ccccc1,685 nm
same,absorption maximum,in ClC(Cl)Cl,680 nm
Cc1c2c(c(C)c3ccccc13)C1=CC3Nc4ccccc4NC3C=C12 (stereo not given),absorption maximum,in ClC(Cl)Cl,470 nm
c1ccc2c(c1)Nc1ccccc1B2c1c2ccccc2cc2ccccc12,absorption maximum,in ClCCl,394 nm
same,absorption maximum,in c1ccccc1,394 nm
C[Si](C)(C)c1sc([Si](C)(C)C)c2c1sc1c2sc2sc3sc4c(sc5c([Si](C)(C)C)sc([Si](C)(C)C)c54)c3c21,absorption maximum,in ClC(Cl)Cl,332 nm
